In test [1] the target is T1, Sucrase-isomaltase, intestinal (Rattus norvegicus, UniProt P23739). As to the kind of experiment: Inhibition of rat intestinal sucrase using sucrose as substrate incubated for 30 mins by glucose-oxidase method.
Test [2] can be described thus: Inhibition of rat intestinal maltase using maltose as substrate incubated for 30 mins by glucose-oxidase method.
Test [3] concerns the target T1, Sucrase-isomaltase, intestinal. Put plainly: Competitive inhibition of rat intestinal sucrase using sucrose as substrate incubated for 30 mins by Lineweaver-Burk plot analysis.
The nature of test [4]: Competitive inhibition of rat intestinal maltase using maltose as substrate incubated for 30 mins by Lineweaver-Burk plot analysis.
A short description of test [5]: Cytotoxicity against human HELF cells by MTT assay. The test is classed as cell-based. A general note: Tetrazolium dyes change colour on reduction, which living cells bring about.
For test [6], the target named is Sucrase-isomaltase, intestinal (Rattus norvegicus) (UniProt P23739). Put plainly: Potency index, ratio of acarbose IC50 to compound IC50 for rat intestinal sucrase.
Chain of Sucrase-isomaltase, intestinal (Rattus norvegicus) (P23739 1-1013 limits assumed): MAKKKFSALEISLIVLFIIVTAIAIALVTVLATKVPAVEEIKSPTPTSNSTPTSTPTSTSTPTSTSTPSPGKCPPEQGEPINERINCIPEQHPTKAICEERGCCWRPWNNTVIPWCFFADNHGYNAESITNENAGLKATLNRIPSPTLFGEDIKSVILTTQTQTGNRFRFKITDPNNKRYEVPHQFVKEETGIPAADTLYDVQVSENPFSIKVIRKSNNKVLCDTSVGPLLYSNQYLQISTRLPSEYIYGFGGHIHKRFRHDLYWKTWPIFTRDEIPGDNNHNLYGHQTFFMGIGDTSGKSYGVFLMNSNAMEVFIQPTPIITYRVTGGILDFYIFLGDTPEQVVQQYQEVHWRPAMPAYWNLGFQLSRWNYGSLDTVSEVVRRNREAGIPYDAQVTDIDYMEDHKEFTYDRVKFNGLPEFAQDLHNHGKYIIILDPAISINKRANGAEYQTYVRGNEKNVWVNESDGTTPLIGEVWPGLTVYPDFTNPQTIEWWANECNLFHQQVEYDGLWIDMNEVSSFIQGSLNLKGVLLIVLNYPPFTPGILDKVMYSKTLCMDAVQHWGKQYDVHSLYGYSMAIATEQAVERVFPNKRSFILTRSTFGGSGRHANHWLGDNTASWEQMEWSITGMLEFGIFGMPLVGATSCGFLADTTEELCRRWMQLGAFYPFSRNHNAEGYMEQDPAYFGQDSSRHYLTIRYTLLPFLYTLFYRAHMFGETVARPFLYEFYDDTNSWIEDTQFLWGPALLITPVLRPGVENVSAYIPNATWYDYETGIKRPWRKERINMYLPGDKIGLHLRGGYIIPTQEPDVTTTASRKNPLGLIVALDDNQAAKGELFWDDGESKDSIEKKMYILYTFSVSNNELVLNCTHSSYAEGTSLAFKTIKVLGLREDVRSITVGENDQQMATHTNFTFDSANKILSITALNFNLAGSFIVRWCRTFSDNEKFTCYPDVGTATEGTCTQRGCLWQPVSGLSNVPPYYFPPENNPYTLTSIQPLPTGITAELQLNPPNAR
Chain of Sucrase-isomaltase, intestinal (Rattus norvegicus) (P23739 1014-1841 limits assumed): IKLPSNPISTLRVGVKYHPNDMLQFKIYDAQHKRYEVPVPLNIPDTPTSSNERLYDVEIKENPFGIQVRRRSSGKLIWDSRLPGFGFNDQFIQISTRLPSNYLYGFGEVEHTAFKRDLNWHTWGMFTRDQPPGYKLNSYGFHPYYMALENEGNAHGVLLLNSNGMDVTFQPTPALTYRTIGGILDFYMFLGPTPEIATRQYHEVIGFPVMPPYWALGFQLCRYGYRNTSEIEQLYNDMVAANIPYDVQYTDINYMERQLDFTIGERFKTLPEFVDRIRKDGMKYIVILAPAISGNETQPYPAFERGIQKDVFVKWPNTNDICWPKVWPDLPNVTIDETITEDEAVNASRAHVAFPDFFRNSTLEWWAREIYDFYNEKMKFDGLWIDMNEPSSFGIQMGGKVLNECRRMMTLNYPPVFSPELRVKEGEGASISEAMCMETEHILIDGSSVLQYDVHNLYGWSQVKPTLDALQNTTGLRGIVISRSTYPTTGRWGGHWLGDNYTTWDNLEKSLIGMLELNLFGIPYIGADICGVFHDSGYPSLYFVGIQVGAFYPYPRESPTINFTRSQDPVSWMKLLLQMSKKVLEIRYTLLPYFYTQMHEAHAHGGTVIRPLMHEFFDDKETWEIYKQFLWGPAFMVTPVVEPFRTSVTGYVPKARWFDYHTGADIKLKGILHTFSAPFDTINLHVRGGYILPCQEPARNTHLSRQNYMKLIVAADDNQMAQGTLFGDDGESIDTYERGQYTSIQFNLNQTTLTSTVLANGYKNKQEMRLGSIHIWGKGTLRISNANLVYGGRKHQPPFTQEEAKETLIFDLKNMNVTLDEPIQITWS

T1 sequence (P23739 1-1013 limits assumed): as the sequence (P23739 1-1013 limits assumed) above
T1 sequence (P23739 1014-1841 limits assumed): as the sequence (P23739 1014-1841 limits assumed) above

As for `O=[N+]([O-])c1cccc(CO[C@H]([C@H](O)[C@@H](O)CO)[C@H](O)C[S+]2C[C@@H](O)[C@H](O)[C@H]2CO)c1` (some centres undefined), the figures for the IC50 in test [1] and in test [2] were 210 nM and 6700 nM, respectively.
In the same order, the values of `OC[C@@H]1[C@@H](O)[C@H](O)C[S+]1C[C@@H](O)[C@H](OCc1ccccc1)[C@H](O)[C@@H](O)CO` (some centres undefined) are 1900 nM and 5300 nM.
As for `OCC(CO)N[C@H]1C[C@](O)(CO)[C@@H](O)[C@H](O)[C@H]1O` [VOGLIBOSE], in test [1], the concentration for half-maximal inhibition (IC50) was 300 nM.
Regarding `OC[C@@H]1[C@@H](O)[C@H](O)C[S+]1C[C@@H](O)[C@H](OCc1cccc(C(F)(F)F)c1)[C@H](O)[C@@H](O)CO.[Cl-]` (some centres undefined), the values for the half-inhibitory concentration (IC50) in test [1] and in test [2] were 450 nM and 9600 nM, respectively. For the same compound, the figures for the Ki in test [3] and in test [4] were 354 nM and 0.66 µg/mL, respectively.
Regarding `CCO[C@H]([C@H](O)[C@@H](O)CO)[C@H](O)C[S+]1C[C@@H](O)[C@H](O)[C@H]1CO` (some centres undefined), the half-maximal inhibitory concentration (IC50) in test [1] was 270 nM; in test [2] it was 9500 nM.
Take `OC[C@@H]1[C@@H](O)[C@H](O)C[S+]1C[C@@H](O)[C@H](OCc1ccc(C(F)(F)F)cc1)[C@H](O)[C@@H](O)CO.[Cl-]` (some centres undefined): the results for the 50% inhibitory concentration (IC50) in test [1] and in test [2] were 4600 nM and 10000 nM, respectively. Moreover, the inhibition constant Ki in test [3] was 786 nM; in test [4], 0.74 µg/mL.
Consider `OC[C@@H]1[C@@H](O)[C@H](O)C[S+]1C[C@@H](O)[C@H](OCc1cccc(Cl)c1)[C@H](O)[C@@H](O)CO` (some centres undefined), for which the figures for the IC50 in test [1] and in test [2] were 510 nM and 5200 nM, respectively.
In the same order, the values of `OC[C@@H]1[C@@H](O)[C@H](O)C[S+]1C[C@@H](O)[C@H](OCc1ccc(Cl)cc1)[C@H](O)[C@@H](O)CO` (some centres undefined) are 5600 nM and 18300 nM.
As for `OC[C@@H]1[C@@H](O)[C@H](O)C[S+]1C[C@@H](O)[C@H](OCc1ccccc1Cl)[C@H](O)[C@@H](O)CO.[Cl-]` (some centres undefined), the half-maximal inhibitory concentration (IC50) in test [1] is 700 nM; in test [5], more than 500000 nM; in test [2], 8200 nM. The results for the inhibition constant Ki in test [3] and in test [4] were 210 nM and 0.45 µg/mL, respectively.
Regarding `OC[C@@H]1[C@@H](O)[C@H](O)C[S+]1C[C@@H](O)[C@H](O)[C@H](O)[C@@H](O)CO` (some centres undefined), the results for the 50% inhibitory concentration (IC50) in test [1] and in test [2] were 300 nM and 2000 nM, respectively.
With `O=[N+]([O-])c1ccccc1CO[C@H]([C@H](O)[C@@H](O)CO)[C@H](O)C[S+]1C[C@@H](O)[C@H](O)[C@H]1CO.[Cl-]` (some centres undefined), the values for the 50% inhibitory concentration (IC50) in test [1], in test [5] and in test [2] were 320 nM, more than 500000 nM and 3500 nM, respectively. Besides, the inhibition constant Ki is 185 nM in test [3] and 0.6 µg/mL in test [4].
`O=[N+]([O-])c1ccc(CO[C@H]([C@H](O)[C@@H](O)CO)[C@H](O)C[S+]2C[C@@H](O)[C@H](O)[C@H]2CO)cc1` (some centres undefined): the IC50 in test [1] came to 4200 nM; in test [2], 32400 nM.
Take `OC[C@@H]1[C@@H](O)[C@H](O)C[S+]1C[C@@H](O)[C@H](OCc1ccccc1C(F)(F)F)[C@H](O)[C@@H](O)CO.[Cl-]` (some centres undefined): the Ratio IC50 in test [6] was 10. The IC50 in test [1] was 200 nM; in test [5] it was more than 500000 nM; in test [2], 2500 nM. Also, the Ki was 216 nM in test [3] and 0.28 µg/mL in test [4].

The IC50 is the concentration that gives 50% inhibition. Lower therefore signals greater potency in that assay. The Ki is a measure of affinity in units of concentration, obtained from inhibition or displacement. Read a low Ki as tighter binding.

Source of the values: ChEMBL document CHEMBL3763016, “Design, synthesis and biological evaluation of 3'-benzylated analogs of 3'-epi-neoponkoranol as potent α-glucosidase inhibitors” (Eur J Med Chem, 2016).
